{"source": "paper PMC12397098", "about": "“3-Monothiopomalidomide, a new immunomodulatory imide drug (IMiD), blunts inflammation and mitigates ischemic stroke in the rat” (GeroScience, 2025)", "key": {"[1]": {"details": "Sprague Dawley, rat, 1 μM"}, "[2]": {"details": "human, 1 μM"}, "in vitro [3]": {"assay": "in vitro", "details": "Sprague Dawley, rat, microsomes"}, "[4]": {"test_system": "LPS-induced cytokines (TNF-α, IL-6, IL-10, IL-13) in plasma and cerebral cortex", "assay": "Systemic and brain LPS anti-inflammatory study in rats", "format": "in vivo", "details": "rat, 4 h", "procedure": "They were administered, via the intraperitoneal (I.P.) route, nano-formulated 3-MP at a dose of 13.25 or 26.5 mg/kg (equimolar to a clinically translatable dose of 12.5 and 25 mg/kg thalidomide), vehicle or pomalidomide (25 mg/kg). One hour later, animals were administered either LPS (1 mg/kg, E.Coli 055:B5, Sigma Aldrich, in normal saline, 0.5 mg/mL) or an alike volume of saline (without LPS) via the I.P. route. The LPS dose was selected from prior pilot studies to provide a substantial but sub-maximal rise in plasma proinflammatory cytokine levels, in line with our prior research. The selected 3-MP and pomalidomide doses were chosen as they are equimolar to, or are less than, doses of thalidomide and analogues that have been verified to be well tolerated in our previous studies and are of translational relevance to humans. Four hours after LPS administration, the animals were euthanized, and blood and brain tissues were collected and placed on wet ice. Plasma was quickly separated from blood by centrifugation (10,000 × g, 5 min, 4 °C) and together with the brain samples (cerebral cortex) was stored at − 80 °C. At a later time, cerebral cortex samples were sonicated in a TRIS-based lysis buffer (Mesoscale Discovery) with 3 × protease/phosphatase inhibitors (Halt™ Protease and Phosphatase Inhibitor Cocktail, Thermo Fisher Scientific, Waltham, MA, USA). Samples were then centrifuged (10,000 × g, 5 min, 4 °C), supernatant separated, and protein concentrations were quantified by bicinchoninic acid assay (BCA, Thermo Fisher Scientific). Rat plasma and cerebral cortex samples were analyzed by multi-proinflammatory cytokine ELISA (V-PLEX Proinflammatory Panel 2 Rat Kit, Mesoscale Discovery) following the manufacturer’s protocol to quantify TNF-α, IL-6, IL-10, and IL-13 levels."}, "[5]": {"test_system": "LPS-induced cytokines (TNF-α, IL-6, IL-10, IL-13) in plasma and cerebral cortex", "assay": "Systemic and brain LPS anti-inflammatory study in rats", "format": "in vivo", "details": "rat, 1 h pre-treatment, 3-MP 13.23 and 26.47 mg/kg I.P., pomalidomide 25 mg/kg I.P., LPS 1 mg/kg I.P., 4 h"}, "in vitro [6]": {"assay": "in vitro", "details": "human, microsomes"}, "[7]": {"assay": "Ex vivo plasma stability, rat", "format": "in vitro ADME", "details": "100 μg/ml, 37 °C, 180 min", "procedure": "(§1) Ex vivo evaluations of drug plasma and liver microsomal time-dependent breakdown are routinely undertaken to initially characterize the metabolic stability of new pharmacological compounds and were performed by WuXi AppTec (Shanghai, China; Study No. 424847–20,211,214-MMS). Rat and human plasma and liver microsomes were purchased from Xenotech (Sprague Dawley rat, Catalog no. R1000; BioIVT, Westbury, NY) or Corning (mixed human, Catalog no. 452117; Sigma). Rat and human plasma was incubated at 37 °C on a shaker and spiked with 3-MP (100 μg/ml, n = 3). Thereafter, samples were time-dependently (0 to 180 min) removed, immediately frozen (− 80 °C), and subjected to LC–MS/MS analysis at a later time."}, "[8]": {"target": "T1, Serotonin 5-HT7A receptor (Homo sapiens, UniProt P34969)", "T1 construct": "NIMH Psychoactive Drug Screening Program (PDSP)", "T1 sequence (P34969 1-445 isoform P34969-2)": "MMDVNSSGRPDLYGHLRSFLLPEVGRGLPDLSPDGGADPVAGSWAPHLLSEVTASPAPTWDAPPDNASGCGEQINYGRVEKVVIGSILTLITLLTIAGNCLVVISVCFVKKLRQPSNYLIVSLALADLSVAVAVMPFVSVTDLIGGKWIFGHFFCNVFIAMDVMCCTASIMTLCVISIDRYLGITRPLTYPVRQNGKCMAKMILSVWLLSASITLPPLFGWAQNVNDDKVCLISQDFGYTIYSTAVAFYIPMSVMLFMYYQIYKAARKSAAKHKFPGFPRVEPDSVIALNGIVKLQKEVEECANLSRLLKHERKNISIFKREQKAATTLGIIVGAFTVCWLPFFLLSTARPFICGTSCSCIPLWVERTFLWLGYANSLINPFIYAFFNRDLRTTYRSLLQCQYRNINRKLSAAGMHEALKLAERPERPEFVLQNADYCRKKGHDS", "assay": "PDSP radioligand binding", "details": "read-out: 3-MP concentration required to induce 50% inhibition of PDSP radioligand binding", "procedure": "(§2) To evaluate potential binding at classical neurological drug targets, 3-MP and 3,6’-DP were submitted to the National Institute on Mental Health (NIMH) Psychoactive Drug Screening Program (PDSP: Univ. N Carolina, Chapel Hill, NC, USA < https://pdspdb.unc.edu/pdspweb/ >) as powdered samples in the provided vials. The materials were then prepared at the PDSP in 10% DMSO, subjected to multiple assay screens, and processed as per the PDSP Assay Protocol Book (Version 3, March 2018). Compounds that exceeded an initial 10 uM binding threshold were then delegated for secondary dose–response analysis. This screen comprised a 45-target comprehensive panel of common brain receptor and transporter drug targets."}, "Dopamine D1 receptor": {"target": "T2, Dopamine D1 receptor (Homo sapiens, UniProt P21728)", "T2 construct": "NIMH Psychoactive Drug Screening Program (PDSP)", "T2 sequence (P21728 whole entry)": "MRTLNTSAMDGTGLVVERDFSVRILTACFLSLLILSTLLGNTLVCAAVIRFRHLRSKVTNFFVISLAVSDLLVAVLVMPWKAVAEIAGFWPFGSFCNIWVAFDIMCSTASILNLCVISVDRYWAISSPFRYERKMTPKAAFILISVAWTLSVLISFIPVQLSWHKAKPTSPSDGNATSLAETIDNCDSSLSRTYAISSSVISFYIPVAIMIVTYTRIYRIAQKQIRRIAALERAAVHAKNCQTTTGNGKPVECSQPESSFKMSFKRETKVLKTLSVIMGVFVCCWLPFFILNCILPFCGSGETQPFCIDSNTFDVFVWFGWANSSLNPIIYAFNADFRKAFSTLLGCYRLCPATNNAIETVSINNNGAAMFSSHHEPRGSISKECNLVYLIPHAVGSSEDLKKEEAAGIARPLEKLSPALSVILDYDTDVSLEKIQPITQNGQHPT", "assay": "PDSP radioligand binding", "details": "read-out: 3-MP concentration required to induce 50% inhibition of PDSP radioligand binding", "procedure": "as §2"}, "GABAA receptor": {"target": "GABAA receptor", "assay": "PDSP radioligand binding", "details": "read-out: 3-MP concentration required to induce 50% inhibition of PDSP radioligand binding", "procedure": "as §2"}, "[9]": {"target": "T3, Adrenergic Beta3 receptor (Homo sapiens, UniProt P13945)", "T3 construct": "NIMH Psychoactive Drug Screening Program (PDSP)", "T3 sequence (P13945 whole entry)": "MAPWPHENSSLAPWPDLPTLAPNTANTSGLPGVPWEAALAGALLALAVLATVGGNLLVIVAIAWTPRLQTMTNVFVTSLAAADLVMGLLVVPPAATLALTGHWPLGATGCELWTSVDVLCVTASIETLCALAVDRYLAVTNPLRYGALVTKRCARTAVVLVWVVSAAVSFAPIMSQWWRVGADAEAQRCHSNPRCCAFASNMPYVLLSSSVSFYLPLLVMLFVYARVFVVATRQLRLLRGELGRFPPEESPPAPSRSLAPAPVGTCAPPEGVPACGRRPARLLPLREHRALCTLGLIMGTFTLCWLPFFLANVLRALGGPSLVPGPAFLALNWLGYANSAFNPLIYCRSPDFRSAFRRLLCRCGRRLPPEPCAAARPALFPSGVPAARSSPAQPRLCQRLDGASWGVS", "assay": "PDSP radioligand binding", "details": "read-out: 3-MP concentration required to induce 50% inhibition of PDSP radioligand binding", "procedure": "as §2"}, "[10]": {"target": "T4, Serotonin 5-HT2A receptor (Homo sapiens, UniProt P28223)", "T4 construct": "NIMH Psychoactive Drug Screening Program (PDSP)", "T4 sequence (P28223 whole entry)": "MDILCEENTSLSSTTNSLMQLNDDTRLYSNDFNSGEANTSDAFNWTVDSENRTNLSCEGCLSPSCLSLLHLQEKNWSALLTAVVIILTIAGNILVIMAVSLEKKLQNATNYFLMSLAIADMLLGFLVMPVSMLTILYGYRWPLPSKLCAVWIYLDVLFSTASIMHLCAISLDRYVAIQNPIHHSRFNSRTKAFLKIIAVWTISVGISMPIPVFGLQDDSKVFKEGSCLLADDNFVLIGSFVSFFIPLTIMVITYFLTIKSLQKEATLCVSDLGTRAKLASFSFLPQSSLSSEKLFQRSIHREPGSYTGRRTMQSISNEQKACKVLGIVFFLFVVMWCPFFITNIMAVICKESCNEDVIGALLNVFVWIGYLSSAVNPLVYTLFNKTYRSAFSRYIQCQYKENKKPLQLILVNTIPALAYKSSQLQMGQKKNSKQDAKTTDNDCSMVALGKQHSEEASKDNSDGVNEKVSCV", "assay": "PDSP radioligand binding", "details": "read-out: 3-MP concentration required to induce 50% inhibition of PDSP radioligand binding", "procedure": "as §2"}, "[11]": {"target": "T5, Adrenergic Alpha2B receptor (Homo sapiens, UniProt P18089)", "T5 construct": "NIMH Psychoactive Drug Screening Program (PDSP)", "T5 sequence (P18089 whole entry)": "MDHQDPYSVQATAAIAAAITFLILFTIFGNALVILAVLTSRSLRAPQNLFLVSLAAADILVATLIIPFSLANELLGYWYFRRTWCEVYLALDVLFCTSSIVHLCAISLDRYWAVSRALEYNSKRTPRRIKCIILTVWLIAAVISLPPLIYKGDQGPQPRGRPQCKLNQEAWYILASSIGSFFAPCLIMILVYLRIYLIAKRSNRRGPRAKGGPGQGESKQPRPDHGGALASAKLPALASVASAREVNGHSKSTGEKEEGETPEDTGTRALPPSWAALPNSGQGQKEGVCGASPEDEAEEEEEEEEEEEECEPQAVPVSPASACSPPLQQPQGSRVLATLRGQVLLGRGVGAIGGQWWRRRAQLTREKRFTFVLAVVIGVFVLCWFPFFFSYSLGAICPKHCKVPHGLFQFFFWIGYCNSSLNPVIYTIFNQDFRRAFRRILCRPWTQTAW", "assay": "PDSP radioligand binding", "details": "read-out: 3-MP concentration required to induce 50% inhibition of PDSP radioligand binding", "procedure": "as §2"}, "[12]": {"target": "T6, Adrenergic Beta2 receptor (Homo sapiens, UniProt P07550)", "T6 construct": "NIMH Psychoactive Drug Screening Program (PDSP)", "T6 sequence (P07550 whole entry)": "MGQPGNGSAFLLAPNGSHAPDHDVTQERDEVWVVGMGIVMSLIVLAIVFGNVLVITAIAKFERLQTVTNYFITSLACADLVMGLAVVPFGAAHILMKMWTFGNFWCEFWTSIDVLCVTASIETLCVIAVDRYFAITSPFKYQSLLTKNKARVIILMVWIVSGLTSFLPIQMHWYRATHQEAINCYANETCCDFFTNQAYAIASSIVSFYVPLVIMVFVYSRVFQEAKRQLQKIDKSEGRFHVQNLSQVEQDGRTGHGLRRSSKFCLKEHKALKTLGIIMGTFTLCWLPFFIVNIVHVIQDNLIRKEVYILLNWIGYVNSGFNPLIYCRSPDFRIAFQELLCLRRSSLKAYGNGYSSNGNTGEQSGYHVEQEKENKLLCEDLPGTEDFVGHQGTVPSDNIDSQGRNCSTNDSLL", "assay": "PDSP radioligand binding", "details": "read-out: 3-MP concentration required to induce 50% inhibition of PDSP radioligand binding", "procedure": "as §2"}, "Histamine H2 receptor": {"target": "Histamine H2 receptor (Homo sapiens, UniProt P25021)", "sequence (P25021 whole entry)": "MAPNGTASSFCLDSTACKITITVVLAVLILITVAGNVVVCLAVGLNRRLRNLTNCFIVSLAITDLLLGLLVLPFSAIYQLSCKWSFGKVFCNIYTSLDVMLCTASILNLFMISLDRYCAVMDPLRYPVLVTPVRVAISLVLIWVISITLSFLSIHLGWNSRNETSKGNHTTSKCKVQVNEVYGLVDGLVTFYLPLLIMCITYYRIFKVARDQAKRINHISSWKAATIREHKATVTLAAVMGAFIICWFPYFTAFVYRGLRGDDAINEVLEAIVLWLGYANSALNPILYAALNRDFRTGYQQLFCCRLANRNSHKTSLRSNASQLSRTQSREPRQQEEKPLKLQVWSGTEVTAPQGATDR", "assay": "PDSP radioligand binding", "details": "read-out: 3-MP concentration required to induce 50% inhibition of PDSP radioligand binding", "procedure": "as §2"}, "[13]": {"assay": "Ex vivo plasma stability, human", "format": "in vitro ADME", "details": "100 μg/ml, 37 °C, 180 min", "procedure": "as §1"}, "[14]": {"details": "13.25 and 26.5 mg/kg I.P. 1 h before LPS 1 mg/kg I.P."}}, "note": "Where two headings read alike, the source gives them in different places."}
{"compound": "Nc1cccc2c1C(=S)N(C1CCC(=O)NC1=O)C2=O", "note": "(centres unmarked) [3-MP, 3-Monothiopomalidomide]", "values": [{"measurement": "reduction of 3-MP levels following 60-min incubation", "setting": "[1]; 60 min", "value": 24.3, "unit": "%"}, {"measurement": "Remaining (NCF = 60 min)", "setting": "[1]; microsomes, 1 h", "value": 116.4, "unit": "%"}, {"measurement": "Remaining (T = 60 min)", "setting": "[1]; microsomes, 1 h", "value": 75.7, "unit": "%"}, {"measurement": "reduction of 3-MP levels following 60-min incubation", "setting": "[2]; 60 min", "value": 8.2, "unit": "%"}, {"measurement": "Remaining (NCF = 60 min)", "setting": "[2]; microsomes, 1 h", "value": 115.3, "unit": "%"}, {"measurement": "Remaining (T = 60 min)", "setting": "[2]; microsomes, 1 h", "value": 91.8, "unit": "%"}, {"measurement": "CLint scaled at 1 μM", "setting": "in vitro [3]", "value": "< 17.3", "unit": "mL/min/kg"}, {"measurement": "half-life at 1 μM", "setting": "in vitro [3]", "value": "> 2.42", "unit": "h"}, {"measurement": "microsomal CLint at 1 μM", "setting": "in vitro [3]", "value": "< 9.6", "unit": "µL/min/mg"}, {"measurement": "LPS-mediated reduction in plasma IL-13", "setting": "[4]; 3-MP both doses I.P., LPS 1 mg/kg", "value": "abated"}, {"measurement": "LPS-mediated elevations in brain IL-13", "setting": "[4]; 3-MP both doses and pomalidomide I.P., LPS 1 mg/kg", "value": "maintained"}, {"measurement": "decline in IL-6 brain levels", "setting": "[4]; 3-MP low dose 13.25 mg/kg I.P., pomalidomide 25 mg/kg I.P., LPS 1 mg/kg", "value": "failed to achieve statistical significance"}, {"measurement": "LPS-induced rise in plasma IL-6", "setting": "[4]; [14]", "value": "reduced"}, {"measurement": "LPS-induced rise in plasma TNF-α", "setting": "[4]; [14]", "value": "reduced"}, {"measurement": "IL-10 elevation induced by LPS in plasma or brain", "setting": "[4]; high- or low-dose 3-MP or pomalidomide I.P., LPS 1 mg/kg", "value": "not lessened"}, {"measurement": "LPS-induced cytokine changes in plasma and cerebral cortex", "setting": "[5]", "value": "significantly mitigated"}, {"measurement": "CLint scaled at 1 μM", "setting": "in vitro [6]", "value": "< 8.6", "unit": "mL/min/kg"}, {"measurement": "half-life at 1 μM", "setting": "in vitro [6]", "value": "> 2.42", "unit": "h"}, {"measurement": "microsomal CLint at 1 μM", "setting": "in vitro [6]", "value": "< 9.6", "unit": "µL/min/mg"}, {"measurement": "stability in rat plasma", "setting": "[7]", "value": "relatively stable"}, {"measurement": "IC50", "setting": "[8]", "value": "> 10", "unit": "µM"}, {"measurement": "IC50", "setting": "Dopamine D1 receptor", "value": "> 10", "unit": "µM"}, {"measurement": "IC50", "setting": "GABAA receptor", "value": "> 10", "unit": "µM"}, {"measurement": "IC50", "setting": "[9]", "value": "> 10", "unit": "µM"}, {"measurement": "IC50", "setting": "[10]", "value": "> 10", "unit": "µM"}, {"measurement": "IC50", "setting": "[11]", "value": "> 10", "unit": "µM"}, {"measurement": "IC50", "setting": "[12]", "value": "> 10", "unit": "µM"}, {"measurement": "IC50", "setting": "Histamine H2 receptor", "value": "> 10", "unit": "µM"}, {"measurement": "stability in human plasma", "setting": "[13]", "value": "relatively stable"}]}
